Columns and labels:
Assay in all cases: KINOMEscan competition binding
Settings in all cases: compound 1.0 µM
BMPR2 (human) = BMPR2 (human) (UniProt Q13873)
BMX (human) = BMX (human) (UniProt P51813)
CAMK2G (human) = CAMK2G (human) (UniProt Q13555)
CDC2L2 (human) = CDC2L2 (human) (UniProt Q9UQ88)
CDC42BPB (human) = CDC42BPB (human) (UniProt Q9Y5S2)
CDK16 (human) = CDK16 (human) (UniProt Q00536)
CDK2 (human) = CDK2 (human) (UniProt P24941)
CDK3 (human) = CDK3 (human) (UniProt Q00526)
CDK5 (human) = CDK5 (human) (UniProt Q00535)
CDK8 (human) = CDK8 (human) (UniProt P49336)
CSNK1A1 (human) = CSNK1A1 (human) (UniProt P48729)
[1] = tested on: EGFR (human), P00533 [752-759 del]
[2] = tested on: EGFR (human), P00533 [G719C]
EPHA2 (human) = EPHA2 (human) (UniProt P29317)
FGFR4 (human) = FGFR4 (human) (UniProt P22455)
FLT4 (human) = FLT4 (human) (UniProt P35916)
INSR (human) = INSR (human) (UniProt P06213)
IRAK3 (human) = IRAK3 (human) (UniProt Q9Y616)
IRAK3 (human), sequence (Q9Y616 whole entry, looked up): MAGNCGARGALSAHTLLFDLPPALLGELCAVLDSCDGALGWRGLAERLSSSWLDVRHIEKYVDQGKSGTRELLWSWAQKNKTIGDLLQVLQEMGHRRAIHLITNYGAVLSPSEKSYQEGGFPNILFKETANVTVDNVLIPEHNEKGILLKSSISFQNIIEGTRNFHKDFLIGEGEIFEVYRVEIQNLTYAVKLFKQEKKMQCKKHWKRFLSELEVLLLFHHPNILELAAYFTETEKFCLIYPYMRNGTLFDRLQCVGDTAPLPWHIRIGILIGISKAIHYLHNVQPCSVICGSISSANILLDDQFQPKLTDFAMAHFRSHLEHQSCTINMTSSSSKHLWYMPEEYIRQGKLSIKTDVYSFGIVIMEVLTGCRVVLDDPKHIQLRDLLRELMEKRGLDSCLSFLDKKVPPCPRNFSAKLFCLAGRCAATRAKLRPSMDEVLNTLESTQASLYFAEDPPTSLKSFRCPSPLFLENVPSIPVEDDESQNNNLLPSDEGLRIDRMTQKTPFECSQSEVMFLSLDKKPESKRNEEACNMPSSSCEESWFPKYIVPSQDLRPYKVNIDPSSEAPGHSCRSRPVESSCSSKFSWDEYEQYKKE

IRAK4 (human) = IRAK4 (human) (UniProt Q9NWZ3)
IRAK4 (human), sequence (Q9NWZ3 whole entry, looked up): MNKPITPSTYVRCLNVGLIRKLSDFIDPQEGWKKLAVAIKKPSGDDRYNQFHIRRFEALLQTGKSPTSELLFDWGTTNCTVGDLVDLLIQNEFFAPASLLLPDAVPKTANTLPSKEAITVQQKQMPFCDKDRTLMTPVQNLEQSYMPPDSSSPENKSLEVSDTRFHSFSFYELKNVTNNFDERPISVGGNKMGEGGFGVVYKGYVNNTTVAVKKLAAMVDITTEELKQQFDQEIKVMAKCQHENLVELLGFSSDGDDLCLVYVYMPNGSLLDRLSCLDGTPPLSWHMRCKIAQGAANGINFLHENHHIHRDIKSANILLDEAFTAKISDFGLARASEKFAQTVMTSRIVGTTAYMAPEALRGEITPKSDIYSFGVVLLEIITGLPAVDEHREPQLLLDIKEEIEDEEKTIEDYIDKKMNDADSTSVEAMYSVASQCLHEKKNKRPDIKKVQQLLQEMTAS

[3] = tested on: KIT (human), P10721 [V559D]
MAP2K6 (human) = MAP2K6 (human) (UniProt P52564)
MAP3K2 (human) = MAP3K2 (human) (UniProt Q9Y2U5)
MAP3K5 (human) = MAP3K5 (human) (UniProt Q99683)
MAP3K5 (human), sequence (Q99683 whole entry, looked up): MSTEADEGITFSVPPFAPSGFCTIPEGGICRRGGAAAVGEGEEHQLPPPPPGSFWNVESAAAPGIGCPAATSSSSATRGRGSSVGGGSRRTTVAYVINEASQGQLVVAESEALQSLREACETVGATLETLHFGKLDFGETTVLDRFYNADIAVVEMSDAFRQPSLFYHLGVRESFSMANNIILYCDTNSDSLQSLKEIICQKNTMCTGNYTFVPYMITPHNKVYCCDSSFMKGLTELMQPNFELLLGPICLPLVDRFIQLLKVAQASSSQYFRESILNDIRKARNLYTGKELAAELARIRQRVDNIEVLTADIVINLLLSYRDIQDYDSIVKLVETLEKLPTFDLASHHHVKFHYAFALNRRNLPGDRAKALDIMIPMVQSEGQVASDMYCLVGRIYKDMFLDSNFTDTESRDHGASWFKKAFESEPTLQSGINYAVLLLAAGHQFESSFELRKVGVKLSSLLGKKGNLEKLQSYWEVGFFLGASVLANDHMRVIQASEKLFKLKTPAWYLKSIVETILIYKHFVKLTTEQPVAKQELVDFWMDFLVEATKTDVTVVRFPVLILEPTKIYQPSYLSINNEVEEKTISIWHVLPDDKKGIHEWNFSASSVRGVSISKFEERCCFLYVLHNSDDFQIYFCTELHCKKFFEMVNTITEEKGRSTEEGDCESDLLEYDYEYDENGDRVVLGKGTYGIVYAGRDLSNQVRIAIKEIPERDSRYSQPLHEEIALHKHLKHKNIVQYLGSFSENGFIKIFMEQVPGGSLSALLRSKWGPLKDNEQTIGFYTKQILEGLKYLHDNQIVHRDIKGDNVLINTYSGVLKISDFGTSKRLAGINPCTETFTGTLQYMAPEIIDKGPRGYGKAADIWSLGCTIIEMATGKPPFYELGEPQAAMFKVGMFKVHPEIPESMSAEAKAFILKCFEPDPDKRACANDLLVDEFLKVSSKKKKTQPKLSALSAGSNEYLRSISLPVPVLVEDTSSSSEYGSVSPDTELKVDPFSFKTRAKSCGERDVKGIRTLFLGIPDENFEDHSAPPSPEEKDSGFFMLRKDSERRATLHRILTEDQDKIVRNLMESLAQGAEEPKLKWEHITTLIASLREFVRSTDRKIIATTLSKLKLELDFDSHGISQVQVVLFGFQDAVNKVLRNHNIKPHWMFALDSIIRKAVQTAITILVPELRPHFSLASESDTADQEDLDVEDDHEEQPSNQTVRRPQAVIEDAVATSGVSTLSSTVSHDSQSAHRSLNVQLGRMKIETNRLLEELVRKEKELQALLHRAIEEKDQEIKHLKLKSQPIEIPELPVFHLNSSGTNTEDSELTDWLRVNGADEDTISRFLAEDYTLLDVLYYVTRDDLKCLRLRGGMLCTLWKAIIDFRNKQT

MAPKAPK5 (human) = MAPKAPK5 (human) (UniProt Q8IW41)
NTRK1 (human) = NTRK1 (human) (UniProt P04629)
NTRK2 (human) = NTRK2 (human) (UniProt Q16620)
PAK1 (human) = PAK1 (human) (UniProt Q13153)
PIK3C2G (human) = PIK3C2G (human) (UniProt O75747)
PLK3 (human) = PLK3 (human) (UniProt Q9H4B4)
PRKCI (human) = PRKCI (human) (UniProt P41743)
PRKCI (human), sequence (P41743 whole entry, looked up): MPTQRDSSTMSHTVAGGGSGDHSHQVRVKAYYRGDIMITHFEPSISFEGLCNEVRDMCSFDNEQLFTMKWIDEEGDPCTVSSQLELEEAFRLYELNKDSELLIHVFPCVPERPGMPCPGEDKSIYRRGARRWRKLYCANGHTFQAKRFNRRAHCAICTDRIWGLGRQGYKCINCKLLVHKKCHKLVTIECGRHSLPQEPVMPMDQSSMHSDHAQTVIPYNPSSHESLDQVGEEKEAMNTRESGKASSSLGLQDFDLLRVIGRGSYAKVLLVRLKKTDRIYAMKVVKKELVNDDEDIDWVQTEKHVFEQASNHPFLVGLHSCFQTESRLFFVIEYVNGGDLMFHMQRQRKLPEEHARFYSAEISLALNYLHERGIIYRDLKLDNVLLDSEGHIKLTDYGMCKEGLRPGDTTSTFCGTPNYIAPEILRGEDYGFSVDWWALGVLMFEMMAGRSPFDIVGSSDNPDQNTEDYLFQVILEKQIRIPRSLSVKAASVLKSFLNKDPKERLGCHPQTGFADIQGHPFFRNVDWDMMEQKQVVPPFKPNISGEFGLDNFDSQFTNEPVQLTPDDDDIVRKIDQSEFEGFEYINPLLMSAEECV

RIPK1 (human) = RIPK1 (human) (UniProt Q13546)
RPS6KA4 KD1 (human) = RPS6KA4 KD1 (human) (UniProt O75676)
RPS6KA5 KD1 (human) = RPS6KA5 KD1 (human) (UniProt O75582)
SRC (human) = SRC (human) (UniProt P12931)
SRPK1 (human) = SRPK1 (human) (UniProt Q96SB4)
STK17A (human) = STK17A (human) (UniProt Q9UEE5)
STK17A (human), sequence (Q9UEE5 whole entry, looked up): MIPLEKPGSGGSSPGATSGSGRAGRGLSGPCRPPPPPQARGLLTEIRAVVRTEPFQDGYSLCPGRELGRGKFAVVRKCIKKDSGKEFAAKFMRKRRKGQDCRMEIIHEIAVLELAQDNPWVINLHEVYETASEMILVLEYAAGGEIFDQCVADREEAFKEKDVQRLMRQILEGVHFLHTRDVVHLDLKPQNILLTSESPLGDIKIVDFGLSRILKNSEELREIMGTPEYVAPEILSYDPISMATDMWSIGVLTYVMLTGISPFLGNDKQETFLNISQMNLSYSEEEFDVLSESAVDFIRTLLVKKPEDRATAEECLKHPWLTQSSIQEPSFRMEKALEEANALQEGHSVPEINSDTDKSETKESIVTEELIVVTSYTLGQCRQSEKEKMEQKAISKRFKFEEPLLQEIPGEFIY

TAOK3 (human) = TAOK3 (human) (UniProt Q9H2K8)
TEC (human) = TEC (human) (UniProt P42680)
TLK2 (human) = TLK2 (human) (UniProt Q86UE8)

BMX (human), sequence (P51813 whole entry, looked up): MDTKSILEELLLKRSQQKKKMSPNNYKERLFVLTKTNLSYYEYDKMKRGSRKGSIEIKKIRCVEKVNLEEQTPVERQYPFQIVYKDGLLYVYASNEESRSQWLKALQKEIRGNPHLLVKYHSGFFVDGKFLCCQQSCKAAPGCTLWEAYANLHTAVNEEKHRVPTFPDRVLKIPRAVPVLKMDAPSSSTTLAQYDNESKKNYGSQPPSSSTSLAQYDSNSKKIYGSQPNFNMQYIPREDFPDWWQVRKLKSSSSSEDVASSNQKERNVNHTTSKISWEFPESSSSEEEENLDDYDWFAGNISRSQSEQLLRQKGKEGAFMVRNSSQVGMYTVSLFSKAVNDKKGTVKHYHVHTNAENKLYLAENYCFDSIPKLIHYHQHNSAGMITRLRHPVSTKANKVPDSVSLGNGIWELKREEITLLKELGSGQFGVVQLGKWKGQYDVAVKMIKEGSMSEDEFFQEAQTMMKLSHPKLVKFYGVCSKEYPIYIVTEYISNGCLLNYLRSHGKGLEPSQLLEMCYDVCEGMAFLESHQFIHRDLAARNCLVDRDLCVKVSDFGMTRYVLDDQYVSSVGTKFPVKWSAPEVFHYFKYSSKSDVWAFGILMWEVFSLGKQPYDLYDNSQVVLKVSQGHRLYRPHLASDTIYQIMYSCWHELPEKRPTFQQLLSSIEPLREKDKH
CDK16 (human), sequence (Q00536 whole entry, looked up): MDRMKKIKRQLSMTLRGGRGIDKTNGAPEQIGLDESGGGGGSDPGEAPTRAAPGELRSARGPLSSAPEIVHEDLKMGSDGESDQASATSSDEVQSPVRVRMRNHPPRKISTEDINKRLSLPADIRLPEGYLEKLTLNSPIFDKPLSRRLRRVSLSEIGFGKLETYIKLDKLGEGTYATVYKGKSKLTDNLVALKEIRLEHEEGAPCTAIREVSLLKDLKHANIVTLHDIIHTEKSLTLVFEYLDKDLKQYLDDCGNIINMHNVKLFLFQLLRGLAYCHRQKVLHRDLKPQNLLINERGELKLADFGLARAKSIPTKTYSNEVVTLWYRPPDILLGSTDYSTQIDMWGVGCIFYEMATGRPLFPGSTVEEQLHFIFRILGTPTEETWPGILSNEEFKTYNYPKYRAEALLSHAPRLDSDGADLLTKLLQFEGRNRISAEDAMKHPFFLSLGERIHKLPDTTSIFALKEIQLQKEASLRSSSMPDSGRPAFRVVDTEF
CDK3 (human), sequence (Q00526 whole entry, looked up): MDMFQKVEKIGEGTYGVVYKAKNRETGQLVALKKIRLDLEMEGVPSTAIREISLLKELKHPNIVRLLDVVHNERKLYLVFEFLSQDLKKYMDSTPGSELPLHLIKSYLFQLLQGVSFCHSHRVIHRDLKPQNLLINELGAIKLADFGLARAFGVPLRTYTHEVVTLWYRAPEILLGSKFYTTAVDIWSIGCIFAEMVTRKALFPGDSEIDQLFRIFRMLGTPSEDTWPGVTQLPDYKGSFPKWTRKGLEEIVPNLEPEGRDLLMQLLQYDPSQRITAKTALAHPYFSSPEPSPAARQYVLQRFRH

For `CNc1nc(Nc2ccc(C(=O)N3CCOCC3)cc2OC)ncc1Cl`, which kinase still bound, per cent of control (BMPR2 (human)) is on record?
The kinase still bound, per cent of control was 85%.

And the kinase still bound, per cent of control (BMX (human))?
Its kinase still bound, per cent of control is 100%.

And the kinase still bound, per cent of control (CAMK2G (human))?
The kinase still bound, per cent of control was 93%.

And the residual activity (CDC2L2 (human))?
The residual activity was 100%.

What about the kinase still bound, per cent of control (CDC42BPB (human)) of the same compound?
Its kinase still bound, per cent of control is 100%.

What about the residual activity (CDK16 (human)) of the same compound?
The residual activity was 100%.

And the residual activity (CDK2 (human))?
Its residual activity is 95%.

What about the residual activity (CDK3 (human)) of the same compound?
Its residual activity is 100%.

What about the residual activity (CDK5 (human)) of the same compound?
Its residual activity is 100%.

What about the residual activity (CDK8 (human)) of the same compound?
Its residual activity is 100%.

And the kinase still bound, per cent of control (CSNK1A1 (human))?
The kinase still bound, per cent of control was 100%.

And the kinase still bound, per cent of control [1]?
Its kinase still bound, per cent of control is 100%.

What about the kinase still bound, per cent of control [2] of the same compound?
The kinase still bound, per cent of control was 100%.

And the kinase still bound, per cent of control (EPHA2 (human))?
The kinase still bound, per cent of control was 100%.

What about the kinase still bound, per cent of control (FGFR4 (human)) of the same compound?
Its kinase still bound, per cent of control is 52%.

What about the kinase still bound, per cent of control (FLT4 (human)) of the same compound?
The kinase still bound, per cent of control was 93%.

And the kinase still bound, per cent of control (INSR (human))?
The kinase still bound, per cent of control was 82%.

What about the kinase still bound, per cent of control (IRAK3 (human)) of the same compound?
Its kinase still bound, per cent of control is 88%.

And the kinase still bound, per cent of control (IRAK4 (human))?
The kinase still bound, per cent of control was 100%.

And the kinase still bound, per cent of control [3]?
Its kinase still bound, per cent of control is 18%.

And the kinase still bound, per cent of control (MAP2K6 (human))?
Its kinase still bound, per cent of control is 100%.

And the kinase still bound, per cent of control (MAP3K2 (human))?
Its kinase still bound, per cent of control is 100%.

And the kinase still bound, per cent of control (MAP3K5 (human))?
Its kinase still bound, per cent of control is 100%.

And the kinase still bound, per cent of control (MAPKAPK5 (human))?
The kinase still bound, per cent of control was 100%.

And the kinase still bound, per cent of control (NTRK1 (human))?
The kinase still bound, per cent of control was 99%.

And the kinase still bound, per cent of control (NTRK2 (human))?
The kinase still bound, per cent of control was 93%.

What about the kinase still bound, per cent of control (PAK1 (human)) of the same compound?
The kinase still bound, per cent of control was 100%.

And the kinase still bound, per cent of control (PIK3C2G (human))?
Its kinase still bound, per cent of control is 71%.

And the kinase still bound, per cent of control (PLK3 (human))?
Its kinase still bound, per cent of control is 100%.

What about the kinase still bound, per cent of control (PRKCI (human)) of the same compound?
Its kinase still bound, per cent of control is 100%.

What about the kinase still bound, per cent of control (RIPK1 (human)) of the same compound?
Its kinase still bound, per cent of control is 100%.

And the kinase still bound, per cent of control (RPS6KA4 KD1 (human))?
Its kinase still bound, per cent of control is 89%.

And the kinase still bound, per cent of control (RPS6KA5 KD1 (human))?
Its kinase still bound, per cent of control is 100%.

What about the kinase still bound, per cent of control (SRC (human)) of the same compound?
Its kinase still bound, per cent of control is 100%.

And the kinase still bound, per cent of control (SRPK1 (human))?
Its kinase still bound, per cent of control is 81%.

And the kinase still bound, per cent of control (STK17A (human))?
The kinase still bound, per cent of control was 53%.

What about the kinase still bound, per cent of control (TAOK3 (human)) of the same compound?
Its kinase still bound, per cent of control is 100%.

And the kinase still bound, per cent of control (TEC (human))?
The kinase still bound, per cent of control was 100%.

And the kinase still bound, per cent of control (TLK2 (human))?
Its kinase still bound, per cent of control is 100%.
